The values below come from patent US20220233640A1, “GALANIN- AND GALANIN RECEPTOR BASED COMPOUNDS FOR THE TREATMENT OF LIVER FIBROSIS” (United State Govermment as represented by the Department of …, priority 2019, published 2022).

This series has as its system FVBN and Mdr2KO mice. As to the kind of experiment: Non-hepatic effects: serum biomarkers of heart (CK) and kidney (CREA, BUN), IDEXX assay system. The format is in vivo, mouse. Set-up: CREA / BUN: unit not given here. The settings on record: for effects on heart (CK) and kidneys (CREA, BUN): FVBN and Mdr2KO mice, vs vehicle-treated mice; for CK / BUN / CREA: serum. The protocol:
FVB/N (FVBN) and Mdr2^−/− (Mdr2KO) mice were purchased from Jackson Laboratory (Bar Harbor, Me.) and maintained in a temperature-controlled environment at 20-22° C. with a 12:12 hours light-dark cycle, having free access to food and drinking water. All animal procedures were performed in accord with the guidelines of Baylor Scott and White (Temple, Tex.) Institutional Animal Care and Use Committee, with approved protocols. In time-course experiments, 1 week, 1 months, 2 months and 4 months old male and female FVBN and Mdr2KO mice were used. In experiments designed to measure the effect of various agonists and antagonists of Gal receptors, on the extent of liver fibrosis in Mdr2KO mice, 2 months old, male and female Mdr2KO mice were used, as well as FVBN mice as negative controls. Four to five animals in each group of age/gender/type (FVBN or Mdr2KO) were used. In parallel, an equal number of 2 months old, male and female FVBN and MDR2KO mice were treated with vehicle only (saline or 20% DMSO) via the same type of minipumps. Galanin, M871 and M40 peptides were dissolved in saline or 20% DMSO in saline, depending on their solubility, and administered by using Alzet osmotic minipumps (Cupertino, Calif.). Galanin, M871 and M40, were administered at a rate of 4 nmol/Kg/day (mice weights being 25-30 g). Vivo-morpholino oligos including two sequences specific to mouse GalR1, and one mouse GalR1 mismatch control, were administered at a rate of 25 μg/mouse/day, for 14 days, after which the mice were euthanized with euthasol, followed by exsanguination and collection of liver tissue.
Serum alanine aminotransferase (ALT), aspartate aminotransferase (AST), alkaline phosphatase (ALKP), CREA, BUN and CK were measured using the IDEXX Catalyst One instrument from IDEXX Laboratories, Inc (Houston, Tex.).
To investigate possible adverse effects of GalR antagonists on vital organs other than the liver, blood biomarkers of the heart (creatine kinase, CK) and kidneys (creatinine, CREA; blood urea nitrogen, BUN) were investigated in FVBN and Mdr2KO mice when treated with GalR1 vivo morpholino, M871, and M40 as compared to vehicle-treated mice.
Referring to Table 2, non-hepatic effects of GalR1 vivo morpholino, M871, and M40 Gal receptor antagonists on FVBN mice are shown. Several serum biomarkers including creatine kinase (CK) for heart, creatinine (CREA) and blood urea nitrogen (BUN) for kidney, were assessed by using IDEXX assay system. Normal range: CK, 68-1070 U/L; CREA, […]; BUN, […].

Ends that are not written are not given here.

For the substance GWTLNSAGYLLGPPPALALA-NH2 [M40], the “effects on heart (CK) and kidneys (CREA, BUN)” value is on record as “no effects on the heart or kidneys”. This substance had a CK (Female FVBN mice) of 151.30 ± 19.90 U/L. This substance returned a CK (Female Mdr2KO mice) of 163.33 ± 63.33 U/L. Besides, where the note is “Male FVBN mice”, the CK worked out at 190.00 ± 58.59 U/L. Also, for the setting “Male Mdr2KO mice”, the CK is reported as 103.33 ± 3.33 U/L.

Take WTLNSAGYLLGPEHPPPALALA-NH2 [M871]: the “effects on heart (CK) and kidneys (CREA, BUN)” value is recorded as “no effects on the heart or kidneys”. For the same substance, under “Female FVBN mice”, the BUN worked out at 26.55 ± 1.67, the CK stood at 136.67 ± 36.67 U/L and the CREA is given as 0.79 ± 0.041. Where the note is “Female Mdr2KO mice”, this substance gave a BUN of 23.33 ± 0.49, a CK of 213.33 ± 103.49 U/L and a CREA of 0.68 ± 0.012. Also, where the note is “Male FVBN mice”, the BUN came to 26.97 ± 0.83, the CK is recorded as 99.67 ± 0.88 U/L and the CREA was found to be 0.81 ± 0.063. Besides, for the setting “Male Mdr2KO mice”, the BUN worked out at 23.04 ± 0.92, the CK was determined as 230.00 ± 52.92 U/L and the CREA came out at 0.67 ± 0.042.
